Earlier results on ten molecules are cited in patent US20060136023A1 (priority 2004, published 2006).

For one data set, the system named is shivering threshold. Conditions: in vivo.
The subject of data set [1] is clots. Conditions: clots treated with plasminogen (2 mg) and SK (100 IU) in 15 ml PBS; clot temperature raised from 24° C. to 37° C.
The subject of data set [2] is clots. The note with it: tPA 0.3, 1.0 and 3.0 μg/ml; incubated from 24° C. to 40° C.
For data set [3], the target named is T1, Plasminogen (Homo sapiens, UniProt P00747).
The target in data set [4] is T1, Plasminogen. The note with it: clots treated with UK at 4° C.; heating to 28° C.

T1 sequence (P00747 20-810 limits assumed, species assumed): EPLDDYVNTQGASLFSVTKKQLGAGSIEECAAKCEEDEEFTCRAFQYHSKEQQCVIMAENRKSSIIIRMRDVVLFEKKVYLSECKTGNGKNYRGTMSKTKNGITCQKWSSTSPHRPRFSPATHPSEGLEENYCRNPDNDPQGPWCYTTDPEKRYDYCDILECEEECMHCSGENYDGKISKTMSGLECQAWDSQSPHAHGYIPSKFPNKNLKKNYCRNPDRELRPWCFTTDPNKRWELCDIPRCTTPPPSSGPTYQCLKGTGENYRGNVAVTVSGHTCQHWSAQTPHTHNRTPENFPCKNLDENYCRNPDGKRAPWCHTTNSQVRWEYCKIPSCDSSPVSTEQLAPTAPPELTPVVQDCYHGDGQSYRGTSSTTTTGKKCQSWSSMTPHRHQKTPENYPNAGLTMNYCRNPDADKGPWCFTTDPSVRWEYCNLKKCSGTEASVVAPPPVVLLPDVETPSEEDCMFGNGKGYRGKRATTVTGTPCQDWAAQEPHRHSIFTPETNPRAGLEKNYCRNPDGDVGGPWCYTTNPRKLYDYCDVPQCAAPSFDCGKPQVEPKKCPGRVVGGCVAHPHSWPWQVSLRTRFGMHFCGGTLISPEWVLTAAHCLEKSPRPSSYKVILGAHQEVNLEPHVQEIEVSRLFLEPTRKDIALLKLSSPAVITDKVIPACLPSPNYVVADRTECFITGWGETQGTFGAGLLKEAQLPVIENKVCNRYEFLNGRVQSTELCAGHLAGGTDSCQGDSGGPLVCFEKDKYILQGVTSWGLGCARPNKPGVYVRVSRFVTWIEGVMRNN

In the case of `CCC(=O)OC1(c2ccccc2)CCN(C)CC1C` (racemic) [alpha prodine, Alpha prodine], the “affinity for the opiate receptor, one enantiomer versus the other” value in the data set on opiate receptor is listed as “(+) isomer has much greater affinity”. Turning to `CN1CCOC(c2ccccc2)c2ccccc2C1` (racemic) [nefopam], in the data set with shivering threshold, the antishivering activity result is “prevent post-operative shivering”. Turning to `CCOC(=O)C1(c2ccccc2)CCN(C)CC1` [Meperidine], in the data set on shivering threshold, the “decrease of shivering threshold relative to vasoconstriction threshold” value is “twice as much”; the “effect on the gain and maximum intensity of shivering” value is given as “does not have much effect”.

Consider `CCC(=O)O[C@@]1(c2ccccc2)CCN(C)C[C@@H]1C` [beta prodine], for which, in the data set with opiate receptor, the “affinity for the opiate receptor, one enantiomer versus the other” value is “(+) isomer has much greater affinity”. For `CN1CC[C@]23c4c5ccc(O)c4O[C@H]2[C@@H](O)C=C[C@H]3[C@H]1C5` [morphine], the antishivering activity entry with shivering threshold is given as “less or no antishivering activity”. `Oc1ccc2c3c1O[C@H]1[C@@H](O)CC[C@@]4(O)[C@@H](C2)N(CC2CCC2)CC[C@]314` [nalbuphine]: the antishivering activity result in the data set on shivering threshold is recorded as “less or no antishivering activity”. For `CC(C)=CCN1CCC2(C)c3cc(O)ccc3CC1C2C` (stereo not shown) [pentazocine], the antishivering activity entry in the data set on shivering threshold is “less or no antishivering activity”.

As for streptokinase [SK], the fibrinolytic activity entry in the data set on clots [1] is “heating enhanced the fibrinolytic activity”. For tissue plasminogen activator [tPA], the “amount of clot lysis” value with clots [2] is “correlated with temperature at all concentrations”. Besides, the fibrinolytic activity entry with Plasminogen [3] (2.5 μg/ml tPA, cooling from normal body temperature to a hypothermic temperature) was “increased fibrinolytic activity”. Moreover, the Plasminogen activation entry with Plasminogen [3] (clots treated with 2.5 μg/ml tPA, incubated at 37, 25, 10, 0 and −8° C.) is “relatively high at low temperatures”. With urokinase [UK], the “conversion of plasminogen to plasmin (fibrinolytic activity)” value in the data set with Plasminogen [4] was “complete conversion of all plasminogen to plasmin”.
